{
  "source": "patent US5830855A",
  "about": "“Lipodepsipeptides as antifungal and fungicidal agents” (priority 1996, dated 1998)",
  "key": {"[1]": {"system": "Candida albicans", "assay": "Broth microdilution MIC", "format": "cell-based", "method": "(§1) Medium: Liquid RPMI 1640 (RPMI) medium with L-glutamine and without sodium bicarbonate (Sigma Chemical Co., R-6504; St. Louis, Mo.) buffered with 0.165M MOPS (34.54 g/liter) was used for in vitro antifungal tests. The medium was adjusted to pH 7.0 with 10M NaOH and filter sterilized.\n(§2) Lipodepsipeptide Dilutions: All stock drug solution concentrations were at least 10-fold higher than the highest concentration tested. AmB, ketoconazole, and the test compounds (SR-E, ST-B, and SS-A) were dissolved in sterile distilled water, 0.2N HCl, and 0.001N HCl, respectively. Each stock solution was diluted to 2× the highest concentration of drug tested with RPMI. Two-fold dilutions were made with RPMI medium.\n(§3) Preparation of Inoculum Suspensions: On Sabouraud dextose agar (SDA; BBL, Becton and Dickinson and Co., Cockeysville, Md.) all isolates were subcultured at least twice before use to ensure purity and viability. Candida spp. and Saccharomyces cerevisiae were grown for 24 hr at 35° C. Isolates of Cryptococcus neoformans were grown for 48 hr at 35° C. Yeast cells from at least five 1-mm-diameter colonies were suspended in 5 ml of sterile 0.85% saline. The resulting suspension was vortexed for 15 sec. The turbidity of each mixed suspension was measured at 530 nm and adjusted to 1×10^6 to 5×10^6 CFU/ml by the NCCLS spectrophotometric method described by National Committee for Clinical Laboratory Standards. 1992. Reference method for broth dilution antifungal susceptibility testing of yeasts; proposed standard, NCCLS document M27-P (ISBN 1-56238-186-5). NCCLS, Villanova. The final transmission of each yeast suspension ranged from 85-87%.\n(§4) Aspergillus fumigatus and Mucor spp. were grown for 1 wk at 35° C. The dermatophytes, Microsporum spp. and Trichophyton spp., were grown for two wk at 30° C. Fungal spores were washed from the plates of all good spore formers (A. fumigatus, Mucor spp., Microsporum canis and Trichophyton spp.) by placing 5 ml of 0.85% saline with 0.2% Tween 80 on the plates and mixing with an inoculating loop. The spore/mycelium suspension was drawn off with a pipette and allowed to settle for at least 5 min. For the poor spore-forming Microsporum audouinii, the procedure was the same except the spore/mycelial suspension was homogenized with a ground glass tissue homogenizer and then allowed to settle for at least 5 min. A small amount of the supernatant was transferred to 5 ml of sterile saline and vortexed. The stock suspensions of all filamentous fungi were measured at 530 nm and adjusted to 85-87% transmission. The concentration (1×10^6 to 5×10^6 CFU/ml) was determined by hemacytometer count or plate count on SDA. All stock suspensions were diluted 1000-fold with RPMI, or 2× the final desired test inocula. The 2× inoculum was diluted 1:1 when the wells were inoculated, and the desired inoculum size was achieved.\n(§5) Broth Microdilution Test: Broth microdilution tests were performed using sterile, disposable, multiwell microdilution plates (96 round U-bottom wells) (Falcon 3077; Becton and Dickinson Labware, Lincoln Park, N.J.). The drugs (2× concentrations) were dispensed into the wells of rows number 1 to 10 of the microdilution plates in 100 μl volumes from highest drug concentration to lowest drug concentration. Each well was inoculated with 100 μl of the corresponding 2× concentrated fungal suspension. The wells of row 11 contained the inoculum with drug-free media as a positive growth control and the wells of row 12 contained uninoculated-drug-free medium as a sterility control.\n(§6) Incubation and Scoring of MIC: All cultures were incubated without shaking at the temperature used during subculture. Incubation times were 48 hr for Candida spp., S. cerevisiae, A. fumigatus, and Mucor spp; 72 hr for C. neoformans; and 7 days for Microsporum and Trichophyton spp. […]"}, "[2]": {"system": "Candida kefyr", "assay": "Broth microdilution MIC", "format": "cell-based", "conditions": "Table 1 (MICs), 1 isolate, 48 hr", "method": "as §1, §2, §3, §4, §5, §6"}, "[3]": {"system": "Candida krusei", "assay": "Broth microdilution MIC", "format": "cell-based", "conditions": "Table 1 (MICs), 2 isolates, 48 hr", "method": "as §1, §2, §3, §4, §5, §6"}, "[4]": {"system": "Candida lusitaniae", "assay": "Broth microdilution MIC", "format": "cell-based", "conditions": "Table 1 (MICs), 2 isolates, 48 hr", "method": "as §1, §2, §3, §4, §5, §6"}, "[5]": {"system": "Candida parapsilosis", "assay": "Broth microdilution MIC", "format": "cell-based", "conditions": "Table 1 (MICs), 2 isolates, 48 hr", "method": "as §1, §2, §3, §4, §5, §6"}, "[6]": {"system": "Candida rugosa", "assay": "Broth microdilution MIC", "format": "cell-based", "conditions": "Table 1 (MICs); Candida rugosa, 2 isolates; 48 hr", "method": "as §1, §2, §3, §4, §5, §6"}, "[7]": {"system": "Candida tropicalis", "assay": "Broth microdilution MIC", "format": "cell-based", "conditions": "Table 1 (MICs); Candida tropicalis, 2 isolates; 48 hr", "method": "as §1, §2, §3, §4, §5, §6"}, "[8]": {"system": "Cryptococcus neoformans", "assay": "Broth microdilution MIC", "format": "cell-based", "conditions": "Table 1 (MICs); Cryptococcus neoformans, 14 isolates; 72 hr", "method": "as §1, §2, §3, §4, §5, §6"}, "[9]": {"system": "Microsporum spp.", "assay": "Broth microdilution MIC", "format": "cell-based", "conditions": "Table 1 (MICs), 2 isolates, 7 days", "method": "as §1, §2, §3, §4, §5, §6"}, "[10]": {"system": "Saccharomyces cerevisiae", "assay": "Broth microdilution MIC", "format": "cell-based", "conditions": "Table 1 (MICs), 1 strain tested more than once (control ATCC 36375), 48 hr", "method": "as §1, §2, §3, §4, §5, §6"}, "[11]": {"system": "Trichophyton spp.", "assay": "Broth microdilution MIC", "format": "cell-based", "conditions": "Table 1 (MICs), 3 isolates, 7 days", "method": "as §1, §2, §3, §4, §5, §6"}, "[12]": {"system": "Candida kefyr", "assay": "Minimum Fungicidal Concentration (MFC)", "format": "cell-based", "conditions": "Table 2, 1 isolate, 24 hr", "method": "as §1, §2, §3, §4, §5, §6"}, "[13]": {"system": "Candida krusei", "assay": "Minimum Fungicidal Concentration (MFC)", "format": "cell-based", "conditions": "Table 2, 2 isolates, 24 hr", "method": "as §1, §2, §3, §4, §5, §6"}, "[14]": {"system": "Candida lusitaniae", "assay": "Minimum Fungicidal Concentration (MFC)", "format": "cell-based", "conditions": "Table 2, 2 isolates, 24 hr", "method": "as §1, §2, §3, §4, §5, §6"}, "[15]": {"system": "Candida parapsilosis", "assay": "Minimum Fungicidal Concentration (MFC)", "format": "cell-based", "conditions": "Table 2, 2 isolates, 24 hr", "method": "as §1, §2, §3, §4, §5, §6"}, "[16]": {"system": "Candida rugosa", "assay": "Minimum Fungicidal Concentration (MFC)", "format": "cell-based", "conditions": "Table 2, 2 isolates, 24 hr", "method": "as §1, §2, §3, §4, §5, §6"}, "[17]": {"system": "Candida tropicalis", "assay": "Minimum Fungicidal Concentration (MFC)", "format": "cell-based", "conditions": "Table 2, 2 isolates, 24 hr", "method": "as §1, §2, §3, §4, §5, §6"}, "[18]": {"system": "Saccharomyces cerevisiae", "assay": "Minimum Fungicidal Concentration (MFC)", "format": "cell-based", "conditions": "Table 2, 1 strain tested more than once, 24 hr", "method": "as §1, §2, §3, §4, §5, §6"}, "[19]": {"system": "fungal isolates", "assay": "Fungicidal activity (MFC), fungal isolates overall", "format": "cell-based, fungi", "conditions": "Table 2 organisms", "method": "as §1, §2\nPreparation of Inoculum Suspensions: On Sabouraud dextose agar (SDA; BBL, Becton and Dickinson and Co., Cockeysville, Md.) all isolates were subcultured at least twice before use to ensure purity and viability. […] The turbidity of each mixed suspension was measured at 530 nm and adjusted to 1×10^6 to 5×10^6 CFU/ml by the NCCLS spectrophotometric method described by National Committee for Clinical Laboratory Standards. […]\nAspergillus fumigatus and Mucor spp. were grown for 1 wk at 35° C. […] The stock suspensions of all filamentous fungi were measured at 530 nm and adjusted to 85-87% transmission. The concentration (1×10^6 to 5×10^6 CFU/ml) was determined by hemacytometer count or plate count on SDA. […]"}},
  "data": [
    {"molecule": "CC(=O)N1CCN(c2ccc(OCC3COC(Cn4ccnc4)(c4ccc(Cl)cc4Cl)O3)cc2)CC1", "note": "(centres unmarked) [Ktz, ketoconazole, reference compound]", "values": [
      {"measurement": "MIC range", "setting": "[1]; Table 1 (MICs), Candida albicans, 20 isolates, RPMI pH 7.0, 48 hr, Ktz read at score 2, others at score 0", "result": "0.02 to 10", "unit": "µg/mL"},
      {"measurement": "MIC, one strain of C. albicans", "setting": "[1]; one strain of C. albicans resistant to ketoconazole", "result": 10, "unit": "µg/mL"},
      {"measurement": "MIC (μg/ml) range", "setting": "[2]", "result": 0.02, "unit": "µg/mL"},
      {"measurement": "MIC (μg/ml) range", "setting": "[3]", "result": 0.15, "unit": "µg/mL"},
      {"measurement": "MIC range", "setting": "[4]", "result": 0.02, "unit": "µg/mL"},
      {"measurement": "MIC range", "setting": "[5]", "result": 0.02, "unit": "µg/mL"},
      {"measurement": "MIC range", "setting": "[6]", "result": 0.02, "unit": "µg/mL"},
      {"measurement": "MIC (μg/ml) range", "setting": "[7]", "result": "0.08 to 0.6", "unit": "µg/mL"},
      {"measurement": "MIC range", "setting": "[8]", "result": "0.04 to 0.6", "unit": "µg/mL"},
      {"measurement": "MIC range", "setting": "[9]", "result": "0.8 to 1.6", "unit": "µg/mL"},
      {"measurement": "MFC (μg/ml) range", "setting": "[10]", "result": 0.15, "unit": "µg/mL"},
      {"measurement": "MIC range", "setting": "[11]", "result": "0.4 to 3.1", "unit": "µg/mL"},
      {"measurement": "MFC (μg/ml) range", "setting": "[12]", "result": 1.25, "unit": "µg/mL"},
      {"measurement": "MFC (μg/ml) range", "setting": "[13]", "result": 0.15, "unit": "µg/mL"},
      {"measurement": "MFC (μg/ml) range", "setting": "[14]", "result": "≤ 0.02", "unit": "µg/mL"},
      {"measurement": "MFC (μg/ml) range", "setting": "[15]", "result": 0.04, "unit": "µg/mL"},
      {"measurement": "MFC (μg/ml) range", "setting": "[16]", "result": "≤0.02 to 0.08", "unit": "µg/mL"},
      {"measurement": "MFC (μg/ml) range", "setting": "[17]", "result": "2.5 to 10", "unit": "µg/mL"},
      {"measurement": "MFC (μg/ml) range", "setting": "[18]", "result": "0.6 to 1.25", "unit": "µg/mL"},
      {"measurement": "fungicidal activity", "setting": "[19]", "result": "fungicidal activity only against C. krusei"}
    ]}
  ]
}
